Experimental findings from patent publication US11000033B2, “Ketone or oxime compound, and herbicide” (NISSAN CHEMICAL CORPORATION, priority 2014, dated 2021) are described below.

Common to all, as to assay type: in vivo
For one series, the system named is Abutilon theophrasti. Briefly: Test Example 5: herbicidal effect by foliage application, plastic box (symbol M). Particulars: 320 g/ha, 3 weeks after application. The procedure, abridged:
(§1)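 Effect is rated 3 weeks after a foliar spray of water-diluted emulsion concentrate at a predetermined herbicide amount. Plants had grown 14 days in a 25° C. to 30° C. greenhouse from seed in sterilized diluvial soil.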

A further series deals with rapeseed. The series can be described thus: Test Example 5: effect on crop by foliage application, plastic box (symbol g). Particulars: 320 g/ha, 3 weeks after application. The procedure, abridged:
(§2)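 Crop seed is sown alongside grass and broadleaf weed species in spots in sterilized diluvial soil, then covered to a depth of about 1.5 cm. Plants grow in a greenhouse kept at 25° C. to 30° C.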

The next series concerns Lolium multiflorum Lam. Briefly: Test Example 5: herbicidal effect by foliage application, plastic box (symbol K). Particulars: 320 g/ha, 3 weeks after application. The procedure, abridged: as §1
Series [1] has as its system Stellaria media. The series can be described thus: Test Example 4: herbicidal effect by soil treatment (symbol P). Particulars: 320 g/ha. The method in brief:
(§3)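 Seeds were sown in sterilized diluvial soil, covered with about 1.5 cm of soil, and the soil surface was sprayed with a water-diluted emulsion of the compound at a predetermined rate. Plants grew in a greenhouse at 25° C. to 30° C.; effects were scored visually 3 weeks after application.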

The test system of a further series is Setaria viridis. Briefly: Test Example 4: herbicidal effect by soil treatment (symbol G). Particulars: 320 g/ha. The method in brief: as §3
The next series deals with Apera spica-venti. Briefly: Test Example 4: herbicidal effect by soil treatment (symbol L). Particulars: 320 g/ha. The procedure, abridged:
as §3

In a further series the test system is Monochoria vaginalis. The series can be described thus: Test Example 1: herbicidal activity, application before weed generation in submerged conditions (symbol C). Particulars: application herbicide amount 320 g/ha. The method in brief:
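Flooded alluvial soil (4 cm water) was mixed-sown with the three weed species, and 2.5-leaf rice seedlings were transplanted. On sowing day, a water-diluted emulsion at a predetermined rate was applied to the water surface. After 3 weeks in a 25–30 °C greenhouse, effect was scored 0–5.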

A further series relates to corn. The series can be described thus: Test Example 5: effect on crop by foliage application, plastic box (symbol c). Particulars: 320 g/ha, 3 weeks after application. The method in brief:
as §2

The subject of the next series is Veronica persica. The series can be described thus: Test Example 4: herbicidal effect by soil treatment (symbol R). Particulars: 320 g/ha. The procedure, abridged:
as §3

Another series relates to Chenopodium album. The series can be described thus: Test Example 5: herbicidal effect by foliage application, plastic box (symbol O). Particulars: 320 g/ha, 3 weeks after application. The method in brief:
as §1

The subject of series [2] is Echinochloa crus-galli var. crus-galli. The series can be described thus: Test Example 5: herbicidal effect by foliage application, plastic box (symbol H). Particulars: 320 g/ha, 3 weeks after application. The procedure, abridged:
as §1

The next series has as its system Leptochloa chinensis. The series can be described thus: Test Example 3: herbicidal effect by foliage application, Wagner pot (symbol D). Particulars: application herbicide amount 320 g/ha. The method in brief:
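Alluvial soil was flooded to a depth of 0.1–0.5 cm, seeded with the weeds and rice, and kept in a greenhouse at 25–30 °C. After 14 days of growth, the foliage received a small-sprayer application of emulsion diluted to the intended rate; injury was rated at 3 weeks.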

A further series has as its system Alopecurus myosuroides. The series can be described thus: Test Example 4: herbicidal effect by soil treatment (symbol J). Particulars: 320 g/ha. The method in brief:
as §3

The subject of another series is Amaranthus retroflexus. The series can be described thus: Test Example 5: herbicidal effect by foliage application, plastic box (symbol N). Particulars: 320 g/ha, 3 weeks after application. The method in brief:
as §1

The subject of another series is Avena fatua. The series can be described thus: Test Example 4: herbicidal effect by soil treatment (symbol I). Particulars: 320 g/ha. The procedure, abridged:
as §3

Series [3] relates to Stellaria media. The series can be described thus: Test Example 5: herbicidal effect by foliage application, plastic box (symbol P). Particulars: 320 g/ha, 3 weeks after application. The method in brief: as §1
A further series deals with transplanted rice plant. Briefly: Test Example 1: effect on crop, application before weed generation in submerged conditions (symbol a). Particulars: application herbicide amount 320 g/ha. The procedure, abridged:
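Alluvial soil pots flooded to 4 cm water, sown with Echinochloa oryzacola, Scirpus juncoides and Monochoria vaginalis, then transplanted with 2.5 leaf stage rice seedlings; pre-emergence application. Greenhouse 25° C. to 30° C.; scored 0–5 by herbicidal ratio 3 weeks after application.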

For `CON=C(C)CC1CC(OC(=O)COCC(F)(F)F)=C(c2c(C)cc(C)cc2C)C1=O` (stereo not drawn) [1-092], in the series with Abutilon theophrasti, the “M: Abutilon theophrasti, herbicidal effect (criteria 0-5)” value is 3 (Herbicidal ratio of 40% or higher and lower than 70%). Moreover, the “g: rapeseed, effect on crop (criteria 0-5)” value in the series on rapeseed was 4 (Herbicidal ratio of 70% or higher and lower than 90%). Moreover, in the series on Lolium multiflorum Lam., the “K: Lolium multiflorum Lam., herbicidal effect (criteria 0-5)” value is 5 (Herbicidal ratio of 90% or more (almost completely withered)). In the series on Stellaria media [1], the “P: Stellaria media, herbicidal effect grade” value is 0 (Herbicidal ratio of 5% or lower (almost no effect)). Moreover, the “G: Setaria viridis, herbicidal effect grade” value in the series with Setaria viridis is 5 (Herbicidal ratio of 90% or more (almost completely withered)). The “L: Apera spica-venti, herbicidal effect grade” value with Apera spica-venti is given as 5 (Herbicidal ratio of 90% or more (almost completely withered)). The “Herbicidal effect grade, C: Monochoria vaginalis” value in the series with Monochoria vaginalis is reported as 0 (Herbicidal ratio of 5% or lower (almost no effect)). The “c: corn, effect on crop (criteria 0-5)” value in the series on corn was 5 (Herbicidal ratio of 90% or more (almost completely withered)). Also, the “R: Veronica persica, herbicidal effect grade” value in the series with Veronica persica was 0 (Herbicidal ratio of 5% or lower (almost no effect)). In addition, the “O: Chenopodium album, herbicidal effect (criteria 0-5)” value with Chenopodium album was 0 (Herbicidal ratio of 5% or lower (almost no effect)). The “H: Echinochloa crus-galli var. crus-galli, herbicidal effect (criteria 0-5)” value in [2] is reported as 5 (Herbicidal ratio of 90% or more (almost completely withered)). The “herbicidal effect on D (Leptochloa chinensis), grade 0-5” value in the series on Leptochloa chinensis is 5 (Herbicidal ratio of 90% or more (almost completely withered)). The “J: Alopecurus myosuroides, herbicidal effect grade” value with Alopecurus myosuroides is 4 (Herbicidal ratio of 70% or higher and lower than 90%). Moreover, the “N: Amaranthus retroflexus, herbicidal effect (criteria 0-5)” value with Amaranthus retroflexus is 3 (Herbicidal ratio of 40% or higher and lower than 70%). Moreover, the “I: Avena fatua, herbicidal effect grade” value in the series with Avena fatua was 2 (Herbicidal ratio of 20% or higher and lower than 40%). For the same compound, the “P: Stellaria media, herbicidal effect (criteria 0-5)” value with Stellaria media [3] is 0 (Herbicidal ratio of 5% or lower (almost no effect)). In the series with transplanted rice plant, the “Effect grade on crop, a: transplanted rice plant” value was 5 (Herbicidal ratio of 90% or more (almost completely withered)).
As to `CON=C(CC1CC(O)=C(c2c(C)cc(C)cc2C)C1=O)C1CCCC1` (stereo not drawn) [1-078], in the series on Abutilon theophrasti, the “M: Abutilon theophrasti, herbicidal effect (criteria 0-5)” value is 0 (Herbicidal ratio of 5% or lower (almost no effect)). For the same compound, the “g: rapeseed, effect on crop (criteria 0-5)” value with rapeseed was 3 (Herbicidal ratio of 40% or higher and lower than 70%). Moreover, in the series on Lolium multiflorum Lam., the “K: Lolium multiflorum Lam., herbicidal effect (criteria 0-5)” value is 5 (Herbicidal ratio of 90% or more (almost completely withered)). Besides, the “P: Stellaria media, herbicidal effect grade” value in the series with Stellaria media [1] is 0 (Herbicidal ratio of 5% or lower (almost no effect)). Moreover, the “G: Setaria viridis, herbicidal effect grade” value in the series with Setaria viridis is on record as 5 (Herbicidal ratio of 90% or more (almost completely withered)). Further, the “L: Apera spica-venti, herbicidal effect grade” value with Apera spica-venti was 4 (Herbicidal ratio of 70% or higher and lower than 90%). The “Herbicidal effect grade, C: Monochoria vaginalis” value with Monochoria vaginalis was 0 (Herbicidal ratio of 5% or lower (almost no effect)). Moreover, in the series with corn, the “c: corn, effect on crop (criteria 0-5)” value was 3 (Herbicidal ratio of 40% or higher and lower than 70%). Also, the “R: Veronica persica, herbicidal effect grade” value with Veronica persica is 0 (Herbicidal ratio of 5% or lower (almost no effect)). Besides, the “H: Echinochloa crus-galli var. crus-galli, herbicidal effect (criteria 0-5)” value in series [2] is 5 (Herbicidal ratio of 90% or more (almost completely withered)). Further, the “herbicidal effect on D (Leptochloa chinensis), grade 0-5” value in the series on Leptochloa chinensis is 4 (Herbicidal ratio of 70% or higher and lower than 90%). Besides, the “J: Alopecurus myosuroides, herbicidal effect grade” value in the series on Alopecurus myosuroides was 3 (Herbicidal ratio of 40% or higher and lower than 70%). The “N: Amaranthus retroflexus, herbicidal effect (criteria 0-5)” value in the series on Amaranthus retroflexus is listed as 0 (Herbicidal ratio of 5% or lower (almost no effect)). Further, the “I: Avena fatua, herbicidal effect grade” value in the series with Avena fatua is 0 (Herbicidal ratio of 5% or lower (almost no effect)). Besides, the “P: Stellaria media, herbicidal effect (criteria 0-5)” value with Stellaria media [3] is given as 0 (Herbicidal ratio of 5% or lower (almost no effect)). Further, in the series on transplanted rice plant, the “Effect grade on crop, a: transplanted rice plant” value is 5 (Herbicidal ratio of 90% or more (almost completely withered)).
